Measurements as given in ChEMBL document CHEMBL1125877, “Synthesis of high specific activity (+)- and (-)-6-[18F]fluoronorepinephrine via the nucleophilic aromatic substitution reaction” (1991).

How the values were obtained:
Papio hamadryas [1] = species: Papio hamadryas; assay: Percent radioactivity remained at 120 min post injection was reported in female baboons; type: functional, organism-based; settings: tested as the 18F-labelled form
Papio hamadryas [2] = species: Papio hamadryas; assay: Peak concentration injected dose/cc was observed at 10 min post injection in female baboons; type: functional

| SMILES | Radioactivity remained (Papio hamadryas [1]) [%] | Peak concentration (Papio hamadryas [2]) [%] |
| --- | --- | --- |
| NCC(O)c1cc(O)c(O)cc1F (racemic) | 0.032 |  |
| NCC(O)c1cc(O)c(O)cc1[18F] (racemic) |  | 0.042 |
